For this assay, the system named is red blood cells (5% RBC suspension). As to the kind of experiment: Test Example 2-2: in vitro hemolytic activity test (upper limit 200 μmol/L). The following applies: read-out: hemolysis IC50. It is filed as cell-based. Here is the method:
Nephrotoxic potentials of the compounds of the present invention whose X is —N(R^F)—CO—X^1 and X^1 is the group represented by formula (III) and T is —N(R^a5)— were investigated by in vitro hemolytic activity test under the condition that the upper limit was 200 μmol/L as the required concentration to 50% of hemolysis (IC50).
Defibrinated sterile blood was centrifuged at 700×g for 3 minutes and, and the supernatant was removed for 100% of red blood cells. After the cleaning with physiological saline, the washed blood cells was suspended in the medium (Earle's balanced salt sodium, bicarbonate, 0.1 g/L L-glutamine without phenol red), and was diluted by 5% (5% RBC suspension).
The washed blood was diluted by 5% in water for injection (solution of complete hemolysis), and was used as the indication of optical density for complete hemolysis.
The compounds of the present invention solution in DMSO (several and doubling dilutions starting from 10 mmol/L), DMSO as the negative control, and Amphotericin B as the positive control were used, and each 5 μL of these was added in to a well of V-form 96 well type microplate. Finally, the maximum concentration of the compounds of the present invention solution in DMSO was 200 μmol/L by adding 245 μL of the medium or 5% RBC suspension into the well.
Two hundred fifty μL of the solution of complete hemolysis was added into another well and the microplate was incubated at 37° C. in 5% of CO2 concentration for an hour.
After the incubation, each 100 μL of supernatants in wells was collected by centrifugation of the microplate at 300×g for 5 minutes and was located on a well of flat-form 96 well type microplate. An absorbance of each supernatant was measured at wavelength of 540 nm.
Percent hemolysis was calculated by using the followed equation. The required concentration to 50% of hemolysis (IC50) was calculated based on the percent hemolysis. […] Hemolysis (%)=(CR−VM)×100÷(VL−VR) Where:
CR: Absorbance of 5% RBC suspension incubated with the compounds of the present invention solution in DMSO
VM: Absorbance of medium incubated with the compounds of the present invention solution in DMSO
VL: Absorbance of solution of complete hemolysis
VR: Absorbance of 5% RBC suspension incubated with DMSO
The “>200” in the table means above IC50 value exceeded the upper concentration 200 μmol/L.

Setting [1] is: Test Example 2-2, hemolysis method 200 (upper concentration 200 μmol/L), 5% RBC suspension, 37° C., one hour.

Where two headings read alike, the source gives them in different places.

For `C[C@@H]1[C@H](O)[C@@H](C)/C=C/C=C/C=C/C=C/C=C/C=C/C=C/[C@H](O[C@@H]2O[C@H](C)[C@@H](O)[C@H](N)[C@@H]2O)C[C@@H]2O[C@](O)(C[C@@H](O)C[C@@H](O)[C@H](O)CC[C@@H](O)C[C@@H](O)CC(=O)O[C@H]1C)C[C@H](O)[C@H]2NC(=O)NNc1ccc(C(F)(F)F)cn1` [I-125], the IC50 (as a rule, the concentration that inhibits the measured activity by half) under setting [1] is more than 200 µM. In the case of `C[C@@H]1[C@H](O)[C@@H](C)/C=C/C=C/C=C/C=C/C=C/C=C/C=C/[C@H](O[C@@H]2O[C@H](C)[C@@H](O)[C@H](N)[C@@H]2O)C[C@@H]2O[C@](O)(C[C@@H](O)C[C@@H](O)[C@H](O)CC[C@@H](O)C[C@@H](O)CC(=O)O[C@H]1C)C[C@H](O)[C@H]2NC(=O)NNC(=O)c1ccc(N2CCOCC2)nc1` [I-194], under setting [1], the IC50 is more than 200 µM. For the molecule `C[C@@H]1[C@H](O)[C@@H](C)/C=C/C=C/C=C/C=C/C=C/C=C/C=C/[C@H](O[C@@H]2O[C@H](C)[C@@H](O)[C@H](N)[C@@H]2O)C[C@@H]2O[C@](O)(C[C@@H](O)C[C@@H](O)[C@H](O)CC[C@@H](O)C[C@@H](O)CC(=O)O[C@H]1C)C[C@H](O)[C@H]2NC(=O)NNC(=O)c1ncccc1N` [I-197], under setting [1], the concentration for half-maximal inhibition (IC50) is more than 200 µM. Still for that read-out and setting: for `C[C@@H]1[C@H](O)[C@@H](C)/C=C/C=C/C=C/C=C/C=C/C=C/C=C/[C@H](O[C@@H]2O[C@H](C)[C@@H](O)[C@H](N)[C@@H]2O)C[C@@H]2O[C@](O)(C[C@@H](O)C[C@@H](O)[C@H](O)CC[C@@H](O)C[C@@H](O)CC(=O)O[C@H]1C)C[C@H](O)[C@H]2NC(=O)NNC(=O)c1cccnc1N` [I-198] the value was more than 200 µM; for `CCCC(=O)NNC(=O)N[C@H]1[C@@H]2C[C@@H](O[C@@H]3O[C@H](C)[C@@H](O)[C@H](N)[C@@H]3O)/C=C/C=C/C=C/C=C/C=C/C=C/C=C/[C@H](C)[C@@H](O)[C@@H](C)[C@H](C)OC(=O)C[C@H](O)C[C@H](O)CC[C@@H](O)[C@H](O)C[C@H](O)C[C@](O)(C[C@@H]1O)O2` [I-209], more than 200 µM. As to `C[C@@H]1[C@H](O)[C@@H](C)/C=C/C=C/C=C/C=C/C=C/C=C/C=C/[C@H](O[C@@H]2O[C@H](C)[C@@H](O)[C@H](N)[C@@H]2O)C[C@@H]2O[C@](O)(C[C@@H](O)C[C@@H](O)[C@H](O)CC[C@@H](O)C[C@@H](O)CC(=O)O[C@H]1C)C[C@H](O)[C@H]2NC(=O)NNS(=O)(=O)c1c[nH]cn1` [I-214], the IC50 under setting [1] was more than 200 µM. For the molecule `CNC(=S)NNC(=O)N[C@H]1[C@@H]2C[C@@H](O[C@@H]3O[C@H](C)[C@@H](O)[C@H](N)[C@@H]3O)/C=C/C=C/C=C/C=C/C=C/C=C/C=C/[C@H](C)[C@@H](O)[C@@H](C)[C@H](C)OC(=O)C[C@H](O)C[C@H](O)CC[C@@H](O)[C@H](O)C[C@H](O)C[C@](O)(C[C@@H]1O)O2` [I-215], the IC50 under setting [1] was more than 200 µM.

With `C[C@@H]1[C@H](O)[C@@H](C)/C=C/C=C/C=C/C=C/C=C/C=C/C=C/[C@H](O[C@@H]2O[C@H](C)[C@@H](O)[C@H](N)[C@@H]2O)C[C@@H]2O[C@](O)(C[C@@H](O)C[C@@H](O)[C@H](O)CC[C@@H](O)C[C@@H](O)CC(=O)O[C@H]1C)C[C@H](O)[C@H]2NC(=O)NNC(=S)Nc1ccccc1` [I-216], the IC50 under setting [1] is more than 200 µM. On the same count and under the same terms, for `C[C@@H]1[C@H](O)[C@@H](C)/C=C/C=C/C=C/C=C/C=C/C=C/C=C/[C@H](O[C@@H]2O[C@H](C)[C@@H](O)[C@H](N)[C@@H]2O)C[C@@H]2O[C@](O)(C[C@@H](O)C[C@@H](O)[C@H](O)CC[C@@H](O)C[C@@H](O)CC(=O)O[C@H]1C)C[C@H](O)[C@H]2NC(=O)NNC(=S)NCCCN1CCOCC1` [I-217] the value was more than 200 µM; for `C[C@@H]1[C@H](O)[C@@H](C)/C=C/C=C/C=C/C=C/C=C/C=C/C=C/[C@H](O[C@@H]2O[C@H](C)[C@@H](O)[C@H](N)[C@@H]2O)C[C@@H]2O[C@](O)(C[C@@H](O)C[C@@H](O)[C@H](O)CC[C@@H](O)C[C@@H](O)CC(=O)O[C@H]1C)C[C@H](O)[C@H]2NC(=O)NNC(=O)NCC(N)=O` [I-220], more than 200 µM; for `C[C@@H]1[C@H](O)[C@@H](C)/C=C/C=C/C=C/C=C/C=C/C=C/C=C/[C@H](O[C@@H]2O[C@H](C)[C@@H](O)[C@H](N)[C@@H]2O)C[C@@H]2O[C@](O)(C[C@@H](O)C[C@@H](O)[C@H](O)CC[C@@H](O)C[C@@H](O)CC(=O)O[C@H]1C)C[C@H](O)[C@H]2NC(=O)NNC(=O)Nc1ccccn1` [I-221], more than 200 µM.

With `C[C@@H]1[C@H](O)[C@@H](C)/C=C/C=C/C=C/C=C/C=C/C=C/C=C/[C@H](O[C@@H]2O[C@H](C)[C@@H](O)[C@H](N)[C@@H]2O)C[C@@H]2O[C@](O)(C[C@@H](O)C[C@@H](O)[C@H](O)CC[C@@H](O)C[C@@H](O)CC(=O)O[C@H]1C)C[C@H](O)[C@H]2NC(=O)NNC(=O)[C@H](O)CO` [I-223], the IC50 (Erythrocyte, 1 h, Test Example 2-2, hemolysis method 200 (upper concentration 200 μmol/L), 5% RBC suspension, 37° C., one hour) was more than 200 µM. On to `C[C@@H]1[C@H](O)[C@@H](C)/C=C/C=C/C=C/C=C/C=C/C=C/C=C/[C@H](O[C@@H]2O[C@H](C)[C@@H](O)[C@H](N)[C@@H]2O)C[C@@H]2O[C@](O)(C[C@@H](O)C[C@@H](O)[C@H](O)CC[C@@H](O)C[C@@H](O)CC(=O)O[C@H]1C)C[C@H](O)[C@H]2NC(=O)NNC(=O)Nc1cccnn1` [I-224], for which the IC50 under setting [1] was more than 200 µM.

As for `C[C@@H]1[C@H](O)[C@@H](C)/C=C/C=C/C=C/C=C/C=C/C=C/C=C/[C@H](O[C@@H]2O[C@H](C)[C@@H](O)[C@H](N)[C@@H]2O)C[C@@H]2O[C@](O)(C[C@@H](O)C[C@@H](O)[C@H](O)CC[C@@H](O)C[C@@H](O)CC(=O)O[C@H]1C)C[C@H](O)[C@H]2NC(=O)NNC(=O)NC[C@H](O)CO` [I-225], the IC50 under setting [1] is more than 200 µM. With `CNC(=O)NNC(=O)N[C@H]1[C@@H]2C[C@@H](O[C@@H]3O[C@H](C)[C@@H](O)[C@H](N)[C@@H]3O)/C=C/C=C/C=C/C=C/C=C/C=C/C=C/[C@H](C)[C@@H](O)[C@@H](C)[C@H](C)OC(=O)C[C@H](O)C[C@H](O)CC[C@@H](O)[C@H](O)C[C@H](O)C[C@](O)(C[C@@H]1O)O2` [I-228], the IC50 under setting [1] was more than 200 µM. `C[C@@H]1[C@H](O)[C@@H](C)/C=C/C=C/C=C/C=C/C=C/C=C/C=C/[C@H](O[C@@H]2O[C@H](C)[C@@H](O)[C@H](N)[C@@H]2O)C[C@@H]2O[C@](O)(C[C@@H](O)C[C@@H](O)[C@H](O)CC[C@@H](O)C[C@@H](O)CC(=O)O[C@H]1C)C[C@H](O)[C@H]2NC(=O)NNC(=O)NCC(O)CCl` (stereo partly shown) [I-229]: under setting [1], the IC50 was more than 200 µM. On the same count and under the same terms, for `C[C@@H]1[C@H](O)[C@@H](C)/C=C/C=C/C=C/C=C/C=C/C=C/C=C/[C@H](O[C@@H]2O[C@H](C)[C@@H](O)[C@H](N)[C@@H]2O)C[C@@H]2O[C@](O)(C[C@@H](O)C[C@@H](O)[C@H](O)CC[C@@H](O)C[C@@H](O)CC(=O)O[C@H]1C)C[C@H](O)[C@H]2NC(=O)NNC(=O)C(C)(C)CO` [I-232] the value was more than 200 µM; for `C[C@@H]1[C@H](O)[C@@H](C)/C=C/C=C/C=C/C=C/C=C/C=C/C=C/[C@H](O[C@@H]2O[C@H](C)[C@@H](O)[C@H](N)[C@@H]2O)C[C@@H]2O[C@](O)(C[C@@H](O)C[C@@H](O)[C@H](O)CC[C@@H](O)C[C@@H](O)CC(=O)O[C@H]1C)C[C@H](O)[C@H]2NC(=O)NNC(=O)C1CCC(O)CC1` (stereo partly shown) [I-239], more than 200 µM; for `C[C@@H]1[C@H](O)[C@@H](C)/C=C/C=C/C=C/C=C/C=C/C=C/C=C/[C@H](O[C@@H]2O[C@H](C)[C@@H](O)[C@H](N)[C@@H]2O)C[C@@H]2O[C@](O)(C[C@@H](O)C[C@@H](O)[C@H](O)CC[C@@H](O)C[C@@H](O)CC(=O)O[C@H]1C)C[C@H](O)[C@H]2NC(=O)NNC(=O)[C@H](O)[C@@H](O)[C@H](O)[C@H](O)CO` [I-242], more than 200 µM.

`C[C@@H]1[C@H](O)[C@@H](C)/C=C/C=C/C=C/C=C/C=C/C=C/C=C/[C@H](O[C@@H]2O[C@H](C)[C@@H](O)[C@H](N)[C@@H]2O)C[C@@H]2O[C@](O)(C[C@@H](O)C[C@@H](O)[C@H](O)CC[C@@H](O)C[C@@H](O)CC(=O)O[C@H]1C)C[C@H](O)[C@H]2NC(=O)NNC(=O)CO` [I-243]: the IC50 under setting [1] is more than 200 µM. The same measure, in the same setting: for `C[C@@H]1[C@H](O)[C@@H](C)/C=C/C=C/C=C/C=C/C=C/C=C/C=C/[C@H](O[C@@H]2O[C@H](C)[C@@H](O)[C@H](N)[C@@H]2O)C[C@@H]2O[C@](O)(C[C@@H](O)C[C@@H](O)[C@H](O)CC[C@@H](O)C[C@@H](O)CC(=O)O[C@H]1C)C[C@H](O)[C@H]2NC(=O)NNC(=O)[C@H](O)C(C)(C)CO` [I-245] the value was more than 200 µM. Consider `C[C@@H]1[C@H](O)[C@@H](C)/C=C/C=C/C=C/C=C/C=C/C=C/C=C/[C@H](O[C@@H]2O[C@H](C)[C@@H](O)[C@H](N)[C@@H]2O)C[C@@H]2O[C@](O)(C[C@@H](O)C[C@@H](O)[C@H](O)CC[C@@H](O)C[C@@H](O)CC(=O)O[C@H]1C)C[C@H](O)[C@H]2NC(=O)NNS(=O)(=O)c1nnc[nH]1` [I-246], for which the IC50 (Erythrocyte, 1 h) is more than 200 µM.

Source of the values: patent publication US10696707B2, “Polyene macrolide derivative” (Shionogi & Co., Ltd., priority 2014, dated 2020).
